Measurements taken from article PMC11189555, “Aryl amino acetamides prevent Plasmodium falciparum ring development via targeting the lipid-transfer protein PfSTART1” (Nature Communications, 2024).

Columns and labels:
[1] = system: PopD-D7 M-833 resistant clone (PfSTART1 N309K); test: Growth inhibition assay (72 h, LDH activity); type: cell-based, Plasmodium falciparum
Method: (§1) The drug was then removed, and parasites were allowed to recover. Another cycle of drug treatment (3 μM M-833) was then resumed. The resistant lines were cloned out by limiting dilution (diluting the culture into a 96-well plate to achieve an average of ~0.3 parasites per well), prior to growth inhibition assays and genomic DNA (gDNA) extraction (DNeasy Blood and Tissue kit (Qiagen)[18].
(§2) Parasite growth assays with inhibitory compounds were performed as per[11] and are fully described in the Supplementary Information. […]
(§3) Growth inhibition assays. Synchronised ring-stage parasites (0.3-0.6% parasitemia, 2% haematocrit) were grown for 72 h in a serial-dilution of the compound under […]
(§4) and compound 4. Note that M-833 was first purchased from MolPort (MolPort -002-267-916) then made in-house at WEHI: the differences observed in EC50s across experiments are attributed to the different batches of M -833. For some experiments, 0, 0.25 or 2.5 mM of glucosamine (GlcN) was also added. Experiments were set up in technical duplicates or triplicates. Following a freeze -thaw cycle, lactate dehydrogenase (LDH) activity was assessed as an indicator of parasite growt h 5. 30 μL of parasite culture was incubated for 30 min in the dark with 75 μL Malstat mixture (0.1 M Tris pH 9.0, 20 g/L lactic acid, pH 7.5, 0.2% Triton-X100, 0.5 g/L acetylpyridine adenine dinucleotide (APAD, Sigma), 200 μg/mL nitroblue tetrazolium (NBT; Sigma), 1 μg/mL phenozine ethosulfate (PES; Sigma)). Absorbance was then measured at 650 nm, transformed using the formula below, plotted against the logarithm of the concentrations, and a non-linear regression (log(inhibitor) vs. response, variable slope) was calculated using GraphPad Prism to assess the half-inhibitory […]
(§5) Growth inhibition % = (1 − average(sample)− average(uRBC)) ∗ 100 […]
(§6) The DMSO samples were also used to assess growth of parasite in the presence of 0.25 and 2.5 mM GlcN (normalised by DMSO in 0 mM GlcN). […]

[2] = system: PopE-F10 M-833 resistant clone (PfSTART1 N330K); test: Growth inhibition assay (72 h, LDH activity); type: cell-based, Plasmodium falciparum
Method: as §1, §2, §3, §4, §5, §6

Compound: CC(C)(Oc1ccc(Cl)c(S(=O)(=O)N2CCOCC2)c1)C(=O)Nc1ccc(F)c(Cl)c1 [compound 3]
- EC50 ([1]; Plasmodium falciparum, Supplementary Table 1, PopD-D7 (N309K), 72 h, read-out: EC50): 1.4 µM
- resistance of the line compared with 3D7 ([1]; PopD-D7 (N309K), Fig 4B): highly resistant
- (av-uRBC) / (DMSO-uRBC) x100 ([1]; PopD-D7, 3.04832 nM, biological replicate 1): 117.893
- (av-uRBC) / (DMSO-uRBC) x100 ([1]; PopD-D7, 3.04832 nM, biological replicate 2): 107.059
- (av-uRBC) / (DMSO-uRBC) x100 ([1]; PopD-D7, 3.04832 nM, biological replicate 3): 122.96
- (av-uRBC) / (DMSO-uRBC) x100 ([1]; PopD-D7, 9.14495 nM, biological replicate 1): 119.508
- (av-uRBC) / (DMSO-uRBC) x100 ([1]; PopD-D7, 9.14495 nM, biological replicate 2): 110.415
- (av-uRBC) / (DMSO-uRBC) x100 ([1]; PopD-D7, 9.14495 nM, biological replicate 3): 124.421
- (av-uRBC) / (DMSO-uRBC) x100 ([1]; PopD-D7, 27.4348 nM, biological replicate 1): 119.539
- (av-uRBC) / (DMSO-uRBC) x100 ([1]; PopD-D7, 27.4348 nM, biological replicate 2): 110.363
- (av-uRBC) / (DMSO-uRBC) x100 ([1]; PopD-D7, 27.4348 nM, biological replicate 3): 140.932
- (av-uRBC) / (DMSO-uRBC) x100 ([1]; PopD-D7, 82.3045 nM, biological replicate 1): 115.279
- (av-uRBC) / (DMSO-uRBC) x100 ([1]; PopD-D7, 82.3045 nM, biological replicate 2): 110.433
- (av-uRBC) / (DMSO-uRBC) x100 ([1]; PopD-D7, 82.3045 nM, biological replicate 3): 132.525
- (av-uRBC) / (DMSO-uRBC) x100 ([1]; PopD-D7, 246.914 nM, biological replicate 1): 110.69
- (av-uRBC) / (DMSO-uRBC) x100 ([1]; PopD-D7, 246.914 nM, biological replicate 2): 106.686
- (av-uRBC) / (DMSO-uRBC) x100 ([1]; PopD-D7, 246.914 nM, biological replicate 3): 118.688
- (av-uRBC) / (DMSO-uRBC) x100 ([1]; PopD-D7, 740.741 nM, biological replicate 1): 93.2195
- (av-uRBC) / (DMSO-uRBC) x100 ([1]; PopD-D7, 740.741 nM, biological replicate 2): 100.295
- (av-uRBC) / (DMSO-uRBC) x100 ([1]; PopD-D7, 740.741 nM, biological replicate 3): 70.3418
- (av-uRBC) / (DMSO-uRBC) x100 ([1]; PopD-D7, 2222.22 nM, biological replicate 1): 51.7543
- (av-uRBC) / (DMSO-uRBC) x100 ([1]; PopD-D7, 2222.22 nM, biological replicate 2): 59.804
- (av-uRBC) / (DMSO-uRBC) x100 ([1]; PopD-D7, 2222.22 nM, biological replicate 3): 18.6053
- (av-uRBC) / (DMSO-uRBC) x100 ([1]; PopD-D7, 6666.67 nM, biological replicate 1): 13.8697
- (av-uRBC) / (DMSO-uRBC) x100 ([1]; PopD-D7, 6666.67 nM, biological replicate 2): 12.8436
- (av-uRBC) / (DMSO-uRBC) x100 ([1]; PopD-D7, 6666.67 nM, biological replicate 3): 12.5413
- (av-uRBC) / (DMSO-uRBC) x100 ([1]; PopD-D7, 20000 nM, biological replicate 1): 8.262
- (av-uRBC) / (DMSO-uRBC) x100 ([1]; PopD-D7, 20000 nM, biological replicate 2): 6.955
- (av-uRBC) / (DMSO-uRBC) x100 ([1]; PopD-D7, 20000 nM, biological replicate 3): 7.3043
- Fold change compared to 3D7 ([1]; Supplementary Table 1, EC50 on PopD-D7 vs 3D7): 88 fold
- EC50 ([2]; Plasmodium falciparum, 72 h, Supplementary Table 1, PopE-F10 (N330K)): 3.25 µM
- resistance of the line compared with 3D7 ([2]; PopE-F10 (N330K), Fig 4B): highly resistant
- (av-uRBC) / (DMSO-uRBC) x100 ([2]; PopE-F10, 3.04832 nM, biological replicate 1): 115.115
- (av-uRBC) / (DMSO-uRBC) x100 ([2]; PopE-F10, 3.04832 nM, biological replicate 2): 108.442
- (av-uRBC) / (DMSO-uRBC) x100 ([2]; PopE-F10, 3.04832 nM, biological replicate 3): 119.048
- (av-uRBC) / (DMSO-uRBC) x100 ([2]; PopE-F10, 9.14495 nM, biological replicate 1): 115.06
- (av-uRBC) / (DMSO-uRBC) x100 ([2]; PopE-F10, 9.14495 nM, biological replicate 2): 109.174
- (av-uRBC) / (DMSO-uRBC) x100 ([2]; PopE-F10, 9.14495 nM, biological replicate 3): 119.013
- (av-uRBC) / (DMSO-uRBC) x100 ([2]; PopE-F10, 27.4348 nM, biological replicate 1): 115.16
- (av-uRBC) / (DMSO-uRBC) x100 ([2]; PopE-F10, 27.4348 nM, biological replicate 2): 107.726
- (av-uRBC) / (DMSO-uRBC) x100 ([2]; PopE-F10, 27.4348 nM, biological replicate 3): 110.78
- (av-uRBC) / (DMSO-uRBC) x100 ([2]; PopE-F10, 82.3045 nM, biological replicate 1): 115.437
- (av-uRBC) / (DMSO-uRBC) x100 ([2]; PopE-F10, 82.3045 nM, biological replicate 2): 107.232
- (av-uRBC) / (DMSO-uRBC) x100 ([2]; PopE-F10, 82.3045 nM, biological replicate 3): 123.007
- (av-uRBC) / (DMSO-uRBC) x100 ([2]; PopE-F10, 246.914 nM, biological replicate 1): 112.345
- (av-uRBC) / (DMSO-uRBC) x100 ([2]; PopE-F10, 246.914 nM, biological replicate 2): 106.543
- (av-uRBC) / (DMSO-uRBC) x100 ([2]; PopE-F10, 246.914 nM, biological replicate 3): 116.449
- (av-uRBC) / (DMSO-uRBC) x100 ([2]; PopE-F10, 740.741 nM, biological replicate 1): 107.602
- (av-uRBC) / (DMSO-uRBC) x100 ([2]; PopE-F10, 740.741 nM, biological replicate 2): 102.914
- (av-uRBC) / (DMSO-uRBC) x100 ([2]; PopE-F10, 740.741 nM, biological replicate 3): 98.1859
- (av-uRBC) / (DMSO-uRBC) x100 ([2]; PopE-F10, 2222.22 nM, biological replicate 1): 85.8267
- (av-uRBC) / (DMSO-uRBC) x100 ([2]; PopE-F10, 2222.22 nM, biological replicate 2): 84.9625
- (av-uRBC) / (DMSO-uRBC) x100 ([2]; PopE-F10, 2222.22 nM, biological replicate 3): 59.2883
- (av-uRBC) / (DMSO-uRBC) x100 ([2]; PopE-F10, 6666.67 nM, biological replicate 1): 37.9433
- (av-uRBC) / (DMSO-uRBC) x100 ([2]; PopE-F10, 6666.67 nM, biological replicate 2): 28.6269
- (av-uRBC) / (DMSO-uRBC) x100 ([2]; PopE-F10, 6666.67 nM, biological replicate 3): 13.3438
- (av-uRBC) / (DMSO-uRBC) x100 ([2]; PopE-F10, 20000 nM, biological replicate 1): 11.6135
- (av-uRBC) / (DMSO-uRBC) x100 ([2]; PopE-F10, 20000 nM, biological replicate 2): 7.135
- (av-uRBC) / (DMSO-uRBC) x100 ([2]; PopE-F10, 20000 nM, biological replicate 3): 4.744
- Fold change compared to 3D7 ([2]; Supplementary Table 1, EC50 on PopE-F10 vs 3D7): 203 fold
